# Entries after “also recorded” stand apart in the source; their conditions may differ.
# Legend:
# [1] = test system: mouse lung carcinoma cell line (3LL); assay: Tumor growth of subcutaneously transplanted mouse lung carcinoma cells; type: in vivo, C57BL/6 mice
# Description: The mouse lung carcinoma cell line (3LL) was suspended in 200 μL of PBS(−), and transplanted (5×10^5 cells per mouse) into the dorsal subcutaneous region of C57BL/6 mice (6 weeks old). To a 6:1:1 mixture of PBS/Cremophor EL/ethanol, RT-22 as a representative of the compounds of the present invention was added to a concentration of 0.25 mg/300 μL, and the resulting mixture was loaded into an SMP-300 micro infusion pump (iPRECIO), which was subcutaneously implanted on the previous day of the transplantation, to perform continuous intravenous administration (n=5 mice). The control group was only administered with an equivalent volume of a solvent (a 6:1:1 mixture of PBS/Cremophor EL/ethanol) (n=6 mice). The transverse and longitudinal diameters of the tumor mass were measured over time for a period of 4 weeks from the start of administration, and the tumor volume (V) was calculated according to the formula: V=π/6x√((transverse diameter×longitudinal diameter)^3).
# [2] = test system: mouse lung carcinoma cell line (3LL cells) and mouse pancreatic cancer cell line (PANC02 cells); assay: Inhibition of macropinocytosis in cancer cells (TMR-dextran uptake); type: cell-based; details: in words, 3LL and PANC02 cells
# Description: Therefore, this Pharmacological Test evaluated the inhibitory effect of the compounds of the present invention on macropinocytosis in a mouse lung carcinoma cell line (3LL cells) and a mouse pancreatic cancer cell line (PANC02 cells) as a target. Specifically, 150 μL of mouse lung carcinoma cell line (3LL) or mouse pancreatic cancer cell line (PANC02) (4×10^4 cells) was seeded on the glass portion of fibronectin-coated glass-bottom culture dishes. After 16-hour culture at 37° C., the medium was changed to DMEM (serum free), and cultured for another 24 hours to allow the cells to be serum-starved. Subsequently, the medium was changed to 2 mL of serum-free medium containing DMSO alone (control) or DMSO in which each test compound was dissolved, followed by culture for 1 hour for pretreatment. The final concentration of DMSO was adjusted to 0.2 mass %.
# DMSO alone (control) or DMSO in which a predetermined concentration of each test compound was dissolved was added in the same manner as above to TMR-dextran (final concentration: 500 μg/mL)-containing DMEM (with 10 mass % FBS), and the thus-obtained medium (180 μL) was added to the cancer cells pretreated as above, followed by incubation at 37° C. for 1 hour. […] The macropinocytosis activity was measured based on the number of TMR-dextran spots per cell. […]
# [3] = test system: mouse lung carcinoma cell line (3LL cells); assay: Cell invasion inhibition assay (Matrigel invasion chamber); type: cell-based; details: in words
# Description: In this Pharmacological Test, the inhibitory effect of each test compound on cell invasion response was evaluated using a mouse lung carcinoma cell line (3LL cells), a mouse pancreatic cancer cell line (PANC02 cells), and a human breast cancer cell line (MDA-MB-157 cells). Of these, the mouse lung carcinoma cell line (3LL) is a cancer cell line with mutant Ras (K-Ras (G12C)), and the human breast cancer cell line (MDA-MB-157) is a cancer cell line with mutant Rac (Rac1 (P29S)). The experiments were performed in BD BioCoat Matrigel invasion chambers (BD Biosciences).
# Specifically, an upper chamber with a Matrigel-coated membrane insert (8 μm pores) at the bottom was equilibrated with DMEM (serum-free medium) for 120 minutes. Thereafter, 300 μL of a suspension of a cancer cell line in DMEM (serum-free) was placed in the upper chamber while 500 μL of DMEM (with 10 mass % FCS) was placed in the lower chamber. Each test compound dissolved in DMSO at a predetermined concentration was added to both the culture media in the upper and lower chambers. As a control, DMSO alone was added to both the culture media in the upper and lower chambers. In all of the experiments, the final DMSO concentration in the culture media was adjusted to 0.2 mass %.
# The resulting products were cultured under 5% CO2 at 37° C. for 22 hours (3LL and PANC02 cells) or 48 hours (MDA-MB-157 cells). Then, the upper chamber was removed, and the culture medium was removed. Thereafter, non-invading cells remaining in the upper chamber were removed using a cotton swab, and the cells remaining outside the bottom of the upper chamber (cells that had invaded into the Matrigel, and passed through the membrane insert) were stained with Diff-Quick (Sysmex). After staining, the membrane inserts with Matrigel were cut out using a scalpel to prepare slides, and the number of invading cells was counted under an optical microscope.
# The results were evaluated based on percent cell invasion (%: Invasion) and percent inhibition (%: Inhibition). The percent cell invasion was obtained by converting the number of invading cells in the presence of each test compound into a percentage, taking the number of invading cells in the control test, in which DMSO was added alone, as 100%; and the percent inhibition was obtained by deducting the percent cell invasion from 100.
smiles,measurement,setting,value
"COC(=O)c1cc(S(=O)(=O)N2CCCC2)cn1CC(=O)c1ccc(-c2cccc(C(F)(F)F)c2)cc1 [RT-22, methyl 1-(2-oxo-2-(3′-(trifluoromethyl)-[1,1′-biphenyl]-4-yl)ethyl)-4-(pyrrolidin-1-yl-sulfonyl)-1H-pyrrole-2-carboxylate]",tumor size as % of that of the control group,"[1]; 3LL s.c. in C57BL/6 mice, continuous intravenous administration, 0.25 mg/300 μL, day 26 to day 29",64 to 69%
same,tumor growth inhibition compared with TBOPP,[1]; in words,more effective in inhibiting tumor growth than TBOPP
same,macropinocytosis activity in cancer cells,[2],inhibitory effect on macropinocytosis activity
same,percent cell invasion inhibition compared with TBOPP,[3],higher percent cell invasion inhibition than TBOPP; also recorded: higher than those of TBOPP

# From US20220017486A1, “DOCK1-INHIBITING COMPOUND AND USE THEREOF” (KYUSHU UNIVERSITY, NATIONAL UNIVERSITY CORPORATION, priority 2018, published 2022)
